Like-named read-outs stand apart in the source and are kept apart here.
Legend:
[1] = molecular target: Jurkat HIV-luciferase clones; experiment: Jurkat latency reversal assay; type: cell-based; settings: Table 4 summary, read-out: Jurkat EC50
Method in brief: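 Three pooled Jurkat HIV-luciferase clones (C16, I15, N6; 5,000 cells/well, maintained with 500 nM EFV) exposed to 3-fold, 14-point titrations (10 μM to 2.1 pM, 0.5% DMSO) in duplicate for 48 h at 37 °C. Luciferase luminescence read; EC50 and maximal % activation versus vehicle from four-parameter logistic fit.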

[2] = system: cell-associated HIV RNA (HIV gag RNA) in CD4+ T cells; experiment: Cell associated HIV RNA (caRNA) assay; type: cell-based, human; settings: CD4+ T cells treated for 48 hours
Source text: During the productive phase of the viral life cycle, HIV produces a large number of differentially spliced transcripts collectively termed cell-associated HIV RNA (ca-HIV RNA) within some cells that are infected. In HIV-infected individuals on suppressive antiretroviral therapy (ART), changes in the levels of caHIV RNA is an accepted surrogate measure of the efficacy of HIV latency reversal.
To measure ca-HIVRNA, peripheral blood mononuclear cells (PBMCs) are isolated from leukocytes obtained by continuous-flow leukapheresis. Total CD4^+ T cells were isolated from PBMCs by negative selection using the EasySep Human CD4^+ T cell Enrichment kit (StemCell, Vancouver, Canada) per the manufacturer's recommendations. Resting CD4^+ T cells are isolated by negative selection with an immunomagnetic column as described previously (25) and either cryopreserved immediately or maintained for two days in IMDM medium (Gibco), 10% FBS, 2 μg/mL IL-2 (Peprotech), and antiretrovirals to prevent viral expansion.
For SMACm treatment, three to five replicates of 2-5×10^6 CD4^+ T cells were treated for 48 hours at 37° C. in 1 mL of RPMI medium 1640, 10% FBS, 10 μg/mL of enfuvirtide (Sigma), and 200 nM rilpivirine. 10 nM phorbol 12-myristate 13-acetate (PMA; Sigma) with 1 μM ionomycin (Sigma) was used as a positive control for LRA activation and 0.2% DMSO vehicle was used as a negative control. Following treatment, cells were lysed and RNA and DNA were co-extracted using an AIIPrep 96 RNA/DNA kit (Qiagen, Valencia, Calif.) per the manufacturer's instructions, adjusting the volume of lysis buffer to 0.6 mL, adding an on-column DNase I treatment (Qiagen) and eluting RNA in 50 μL of water. […]
HIV absolute HIV gag RNA copies per reaction were determined using an HIV gag gBlock qPCR standard corresponding to the DNA sequence of the qPCR product (5′-[…]-3′ (SEQ ID NO: 4); Integrated DNA Technologies), and copies were normalized to cell counts as determined by bright field microscopy. […]

[3] = system: NFKB2; experiment: NFkB2 gene induction; type: cell-based, human; settings: normal donor CD4 T cells, 24h, read-out: NFkB2 gene induction EC50
Protocol: 5×10^5 normal donor CD4 T cells were treated for 24h with serial dilutions of compounds starting at 1.0 μM at 6 fold, 7 places. Total RNA was isolated using the RNEasy Mini kit (Qiagen) per the manufacturer's instructions. The following TaqMan primer probe sets were sourced from Applied Biosystems: Hs00174517_m1 (NFKB2) and Hs02800695 (HPRT1). TaqMan-based real-time PCR (Fast Virus 1-Step Master Mix, Applied Biosystems) was used to amplify host genes of interest. Gene expression was normalized to HPRT1 and comparative threshold cycle (CT) method (ΔΔCT) was used for relative fold change of gene expression as compared to untreated cells. The data was analyzed by QuantStudio3 Real-Time PCR System.

| SMILES | EC50 [1] [µM] | caRNA Lowest efficacious concentration observed [2] | EC50 [3] [µM] | EC50 ([1]; Homo sapiens, Jurkat, 48 h) [µM] | EC50 ([3]; Homo sapiens) [µM] |
| --- | --- | --- | --- | --- | --- |
| CN[C@H](C)C(=O)N[C@@H](C(=O)N1CCC[C@@H]1C(=O)N[C@@H]1c2ccccc2C[C@@H]1OCC#CC#CCO[C@@H]1Cc2ccccc2[C@H]1NC(=O)[C@H]1CCCN1C(=O)[C@H](NC(=O)[C@@H](C)NC)C1CCCCC1)C1CCCCC1 [AZD5582, reference compound] | 0.008 | 10 | 0.028 | – | – |
| CC[C@H](NC(=O)[C@H](C)NC)C(=O)N1C[C@@H](O)C[C@H]1Cc1c(-c2[nH]c3cc(F)ccc3c2C[C@@H]2C[C@H](O)CN2C(=O)[C@H](CC)NC(=O)[C@H](C)NC)[nH]c2cc(F)ccc12 [Birinapant, reference compound] | – | >1000 | – | 0.2 | > 1 |
| CN[C@H](C)C(=O)N[C@@H]1CCS[C@@H]2CC(C)(C)C(C(=O)N[C@@H]3CCCc4ccccc43)N2C1=O (stereo partly drawn) [SBI-0637142] | 0.001 | >1000 | 18 | – | – |
